Reference: ChEMBL document CHEMBL1208786, “1-Methyl-1H-pyrrole-2-carbonitrile containing tetrahydronaphthalene derivatives as non-steroidal progesterone receptor antagonists” (Bioorg Med Chem Lett, 2010)
The source made the active and inactive calls. The rule behind the calls is not given here.

How the values were obtained:
Progesterone receptor = molecular target: T1, Progesterone receptor (Homo sapiens, UniProt P06401); test: Antagonist activity at progesterone receptor in human T47D cells assessed as inhibition of progesterone-induced alkaline phosphatase activity; type: functional, cell-based
T1 sequence (P06401 whole entry): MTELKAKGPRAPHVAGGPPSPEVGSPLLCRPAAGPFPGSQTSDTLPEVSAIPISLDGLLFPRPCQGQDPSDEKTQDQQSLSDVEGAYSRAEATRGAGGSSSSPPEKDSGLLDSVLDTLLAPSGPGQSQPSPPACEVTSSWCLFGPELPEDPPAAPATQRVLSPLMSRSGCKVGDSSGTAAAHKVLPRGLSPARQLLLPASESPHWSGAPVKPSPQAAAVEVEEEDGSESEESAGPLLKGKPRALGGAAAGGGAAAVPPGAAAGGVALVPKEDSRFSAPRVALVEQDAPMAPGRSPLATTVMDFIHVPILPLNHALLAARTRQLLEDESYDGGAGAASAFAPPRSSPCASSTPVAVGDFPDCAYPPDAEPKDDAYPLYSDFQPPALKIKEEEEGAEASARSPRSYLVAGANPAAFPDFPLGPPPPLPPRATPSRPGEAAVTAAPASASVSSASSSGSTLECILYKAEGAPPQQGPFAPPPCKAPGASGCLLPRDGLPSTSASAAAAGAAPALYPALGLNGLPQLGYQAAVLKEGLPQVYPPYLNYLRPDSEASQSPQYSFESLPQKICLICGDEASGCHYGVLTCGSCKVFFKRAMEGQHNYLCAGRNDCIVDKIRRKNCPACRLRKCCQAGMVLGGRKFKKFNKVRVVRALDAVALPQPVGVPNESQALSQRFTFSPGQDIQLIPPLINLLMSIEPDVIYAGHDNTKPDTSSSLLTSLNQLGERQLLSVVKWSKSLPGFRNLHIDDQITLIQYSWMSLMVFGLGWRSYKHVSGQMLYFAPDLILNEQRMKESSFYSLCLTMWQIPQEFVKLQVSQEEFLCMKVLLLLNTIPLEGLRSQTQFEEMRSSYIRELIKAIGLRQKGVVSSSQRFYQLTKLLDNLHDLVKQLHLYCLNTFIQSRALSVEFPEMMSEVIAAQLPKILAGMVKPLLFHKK

[1] = molecular target: T2, Mineralocorticoid receptor (Homo sapiens) (UniProt P08235); test: Antagonist activity at mineralocorticoid receptor ligand binding domain up to 10 uM by two hybrid assay
T2 sequence (whole entry): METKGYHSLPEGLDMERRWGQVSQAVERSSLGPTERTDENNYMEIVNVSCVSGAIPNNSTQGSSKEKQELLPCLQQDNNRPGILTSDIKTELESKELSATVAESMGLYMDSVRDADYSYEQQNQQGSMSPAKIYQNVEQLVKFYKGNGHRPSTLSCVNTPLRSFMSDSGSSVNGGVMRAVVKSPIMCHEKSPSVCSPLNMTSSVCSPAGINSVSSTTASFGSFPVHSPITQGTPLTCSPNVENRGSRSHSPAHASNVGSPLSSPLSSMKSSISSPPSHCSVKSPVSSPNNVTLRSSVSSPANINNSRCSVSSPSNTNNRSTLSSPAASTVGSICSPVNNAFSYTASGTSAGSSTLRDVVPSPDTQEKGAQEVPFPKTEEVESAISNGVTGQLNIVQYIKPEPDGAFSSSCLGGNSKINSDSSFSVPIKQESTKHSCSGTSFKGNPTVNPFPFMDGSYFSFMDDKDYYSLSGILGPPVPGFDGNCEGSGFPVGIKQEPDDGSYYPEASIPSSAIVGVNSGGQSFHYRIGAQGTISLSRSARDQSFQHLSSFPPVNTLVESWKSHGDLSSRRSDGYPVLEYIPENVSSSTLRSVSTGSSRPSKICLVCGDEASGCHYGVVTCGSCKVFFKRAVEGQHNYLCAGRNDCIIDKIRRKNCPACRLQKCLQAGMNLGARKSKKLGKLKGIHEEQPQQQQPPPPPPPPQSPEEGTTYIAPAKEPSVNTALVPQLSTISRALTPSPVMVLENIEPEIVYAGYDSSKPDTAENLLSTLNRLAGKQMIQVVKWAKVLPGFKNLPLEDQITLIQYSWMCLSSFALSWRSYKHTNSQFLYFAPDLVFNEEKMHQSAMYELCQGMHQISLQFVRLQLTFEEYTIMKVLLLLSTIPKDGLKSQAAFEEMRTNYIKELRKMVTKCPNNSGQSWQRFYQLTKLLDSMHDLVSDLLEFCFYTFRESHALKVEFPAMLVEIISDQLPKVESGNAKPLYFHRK

[2] = molecular target: T3, Glucocorticoid receptor (Homo sapiens) (UniProt P04150); test: Antagonist activity at glucocorticoid receptor ligand binding domain up to 10 uM by two hybrid assay
T3 sequence (whole entry): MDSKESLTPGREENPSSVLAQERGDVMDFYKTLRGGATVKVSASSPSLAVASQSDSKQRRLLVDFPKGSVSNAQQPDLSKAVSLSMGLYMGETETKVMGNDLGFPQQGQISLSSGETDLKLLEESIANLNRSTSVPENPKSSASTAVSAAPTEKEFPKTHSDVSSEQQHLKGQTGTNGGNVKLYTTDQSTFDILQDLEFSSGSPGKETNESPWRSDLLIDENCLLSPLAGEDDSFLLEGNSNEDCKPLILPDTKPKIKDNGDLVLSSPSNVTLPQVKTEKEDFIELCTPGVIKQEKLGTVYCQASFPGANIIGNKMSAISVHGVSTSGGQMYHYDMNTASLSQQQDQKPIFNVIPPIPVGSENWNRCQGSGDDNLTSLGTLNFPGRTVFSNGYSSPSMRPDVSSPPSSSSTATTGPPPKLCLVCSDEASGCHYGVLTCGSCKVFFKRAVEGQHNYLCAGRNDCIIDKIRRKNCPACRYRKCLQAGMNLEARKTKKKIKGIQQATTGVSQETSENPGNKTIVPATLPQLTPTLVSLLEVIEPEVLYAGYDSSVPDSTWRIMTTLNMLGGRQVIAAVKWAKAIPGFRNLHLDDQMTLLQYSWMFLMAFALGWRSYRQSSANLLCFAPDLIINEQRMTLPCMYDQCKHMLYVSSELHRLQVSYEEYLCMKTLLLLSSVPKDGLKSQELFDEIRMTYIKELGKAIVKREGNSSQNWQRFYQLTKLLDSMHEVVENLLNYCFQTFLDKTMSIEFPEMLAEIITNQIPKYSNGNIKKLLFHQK

[3] = molecular target: T4, Estrogen receptor (Homo sapiens) (UniProt P03372); test: Antagonist activity at estrogen receptor ligand binding domain up to 10 uM by two hybrid assay
T4 sequence (whole entry): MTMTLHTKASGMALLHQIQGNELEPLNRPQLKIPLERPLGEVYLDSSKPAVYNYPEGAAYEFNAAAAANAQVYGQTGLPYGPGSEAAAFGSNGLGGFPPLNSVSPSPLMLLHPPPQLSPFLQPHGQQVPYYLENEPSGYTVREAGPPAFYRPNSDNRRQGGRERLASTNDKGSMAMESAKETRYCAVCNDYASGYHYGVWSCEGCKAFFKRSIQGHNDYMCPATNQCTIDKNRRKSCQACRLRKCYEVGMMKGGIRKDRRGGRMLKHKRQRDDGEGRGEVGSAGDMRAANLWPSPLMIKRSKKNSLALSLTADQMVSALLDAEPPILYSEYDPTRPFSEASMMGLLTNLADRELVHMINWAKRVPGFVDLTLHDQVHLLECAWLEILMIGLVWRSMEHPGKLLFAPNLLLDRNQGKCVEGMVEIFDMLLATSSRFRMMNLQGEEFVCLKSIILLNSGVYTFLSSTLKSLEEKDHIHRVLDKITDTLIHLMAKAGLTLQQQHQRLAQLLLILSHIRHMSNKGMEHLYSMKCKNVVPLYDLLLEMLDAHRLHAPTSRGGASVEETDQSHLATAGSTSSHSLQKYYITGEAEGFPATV

Androgen receptor = molecular target: T5, Androgen receptor (Homo sapiens, UniProt P10275); test: Antagonist activity at androgen receptor ligand binding domain by two hybrid assay
T5 sequence (P10275 whole entry): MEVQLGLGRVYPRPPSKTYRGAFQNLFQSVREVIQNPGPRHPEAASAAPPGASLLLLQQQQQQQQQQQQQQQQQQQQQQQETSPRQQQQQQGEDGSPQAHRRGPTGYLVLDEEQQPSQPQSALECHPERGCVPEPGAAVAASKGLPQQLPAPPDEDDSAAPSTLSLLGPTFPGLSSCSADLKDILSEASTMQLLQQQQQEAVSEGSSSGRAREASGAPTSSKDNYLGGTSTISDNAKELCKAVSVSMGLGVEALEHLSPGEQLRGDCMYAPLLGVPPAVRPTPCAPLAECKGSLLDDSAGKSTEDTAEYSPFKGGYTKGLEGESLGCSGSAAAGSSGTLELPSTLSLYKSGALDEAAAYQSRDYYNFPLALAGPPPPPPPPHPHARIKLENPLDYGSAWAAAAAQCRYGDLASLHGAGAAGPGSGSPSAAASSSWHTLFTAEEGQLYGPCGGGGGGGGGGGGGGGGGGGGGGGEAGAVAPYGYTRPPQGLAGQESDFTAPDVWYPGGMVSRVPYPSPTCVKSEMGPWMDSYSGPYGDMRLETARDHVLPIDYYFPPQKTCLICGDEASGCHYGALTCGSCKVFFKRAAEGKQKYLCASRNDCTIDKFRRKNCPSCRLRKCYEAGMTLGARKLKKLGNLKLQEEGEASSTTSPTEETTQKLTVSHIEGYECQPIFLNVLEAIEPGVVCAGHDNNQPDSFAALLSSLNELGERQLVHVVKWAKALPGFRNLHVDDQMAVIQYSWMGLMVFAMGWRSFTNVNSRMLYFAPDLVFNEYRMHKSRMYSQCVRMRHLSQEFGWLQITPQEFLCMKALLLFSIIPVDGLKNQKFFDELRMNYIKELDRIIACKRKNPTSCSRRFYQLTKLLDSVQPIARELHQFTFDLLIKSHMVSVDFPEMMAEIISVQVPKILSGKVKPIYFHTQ

IC50 (Progesterone receptor) [nM]	SMILES	further results
7	Cn1c(C#N)ccc1-c1ccc2c(c1)CCCC2O (stereo not drawn)	
10	CC#CC1(O)CCCc2cc(-c3ccc(C#N)n3C)ccc21 (stereo not drawn)	
118	Cn1c(C#N)ccc1-c1ccc(C(O)c2ccccc2)cc1 (stereo not drawn)	
3	Cn1c(C#N)ccc1-c1ccc(/C(=N\O)C(C)(C)C)cc1	inhibition [1]: inactive; inhibition [2]: inactive; inhibition [3]: inactive; IC50 (Androgen receptor): 165 nM
17	CC/C(=N/O)c1ccc(-c2ccc(C#N)n2C)cc1	
108	C/C(=N/O)c1ccc(-c2ccc(C#N)n2C)cc1	
33	Cn1c(C#N)ccc1-c1ccc2c(c1)CCC/C2=N/O	
36	CC(O)c1ccc(-c2ccc(C#N)n2C)cc1 (stereo not drawn)	
35	Cn1c(C#N)ccc1-c1ccc2c(c1)CCCC2(O)c1ccccc1 (stereo not drawn)	
6	Cn1c(C#N)ccc1-c1ccc2c(c1)CCCC2(C)O (stereo not drawn)	
800	CC(=O)c1ccc(-c2ccc(C#N)n2C)cc1	
27	CCC(O)c1ccc(-c2ccc(C#N)n2C)cc1 (stereo not drawn)	
28	Cn1c(C#N)ccc1-c1ccc2c(c1)CCCC2=O	

SMILES	IC50 (Progesterone receptor) [nM]	further results
Cn1c(C#N)ccc1-c1ccc(C(=O)C(C)(C)C)cc1	3	inhibition [1]: inactive; inhibition [2]: inactive; inhibition [3]: inactive; IC50 (Androgen receptor): 100 nM
Cn1c(C#N)ccc1-c1ccc(C(O)c2cccs2)cc1 (stereo not drawn)	47	
